The results in this text go back to US12258304B2, “Compounds and methods for treatment of bacterial infections” (Albert Einstein College of Medicine, priority 2019, dated 2025).

“Also recorded” adds a separate entry of the source.

For series [1], the target named is T1, PhMqnE (MqnE from Pedobacter heparinus) (Pedobacter heparinus, UniProt C6XW09). Nature of the series: PhMqnE competition / inhibition assay (AF formation). It is filed as biochemical. As to the method: (§1) FIGS. 2(a), 2(b) and 2(c) illustrate inhibition studies of MqnE. […] Assays contained 0.5 μM of PhMqnE, 1 mM SAM, 1 mM DHC, and 2-FDHC varied from 5 μM to 2 mM.
(§2) The mqnE gene from Pedobacter heparinus (PhMqnE) was coexpressed together with the pPH151 plasmid, which contains the suf operon from E. coli under the control of a T7 promoter, to promote proper FeS cluster assembly in PhMqnE. […] It was surmised that positioning fluorine atoms around the aromatic ring of DHC would stabilize the captodative radical intermediate 1 by preventing it from converting to intermediate 2 in FIG. 1(a), thereby acting as a mechanism-based inhibitor and trapping the enzyme in an intermediate state. DHC analogues were synthesized with fluorine at the 2, 4, 5, and 2,4 positions of DHC (FIG. 1 (b)).

In series [2] the test system is Helicobacter pylori (Hp). In words: Hp growth inhibition in liquid culture (OD600). It counts as cell-based. As for the experimental part: Inhibition was determined by measuring the OD600 of liquid cultures incubated at 37° C. for 48 hours.
(§3) Hp grows under microanaerobic conditions in the human gut, where over population can lead to ulcers and cancer. Based on the K results described above, the effects of 2F-DHC were examined on the growth of Hp in BHI medium supplemented with 10% fetal bovine serum and Hp selective supplement (DENT supplement) in 96-well plate format. Growth of Hp was detected by measuring the optical density of the media at 600 nm after 72 hr of growth at 37° C. […] To determine if 2F-DHC inhibits Hp growth by specifically blocking the action of MqnE in the futalosine pathway, it was tested whether the product of MqnE, AF, could rescue Hp growth in the presence of 2F-DHC.

Series [3] has as its target T1, PhMqnE (MqnE from Pedobacter heparinus). Nature of the series: PhMqnE substrate kinetics / turnover of DHC analogues. It is filed as biochemical. As for the experimental part:
as §1, §2

Series [4] relates to HEK293T cells. In words: HEK293T cell growth and viability. It is filed as cell-based, human. The settings on record: 1 mM 2F-DHC, 24 and 48 hr culture. As to the method:
(§4) FIGS. 4(a) and 4(b) illustrate E. coli and HEK293T cell growth in the presence of 2F-DHC.
(§5) As shown in FIG. 4(a), an overnight culture of E. coli was diluted 1:25 into 100 μL of minimal media with either 1 μL of DMSO (no DHC control) or 1 μL of 100 mM 2F-DHC in DMSO in a 96-well plate. The plate was shaken at 37° C. and monitored for at 2, 3, and 4 hr post inoculation by measuring the OD600. […] Cell growth and viability were measured with an automated cell counter after staining with tryptan blue (Countess, Life Technologies).

The test system of series [5] is Escherichia coli. In words: E. coli growth in minimal media (OD600). It counts as cell-based. The settings on record: 1 μL of 100 mM 2F-DHC in 100 μL minimal media, OD600 at 2, 3 and 4 hr.
Source text: as §4, §3, §5

Substrate in series [6]: C=C(Oc1cccc(C(=O)O)c1)C(=O)O
In words: PhMqnE substrate kinetics / turnover of DHC analogues. The settings on record: other: purified PhMqnE, dithionite (DT) as electron source. It counts as biochemical, Pedobacter heparinus.

The mark [7] stands for this setting: media supplemented with 1 mM AF, 48 hr.

For the molecule `C=C(Oc1cccc(C(=O)O)c1F)C(=O)O` [2F-DHC], in series [1] (250 μM inhibitor, 0.5 μM PhMqnE, 1 mM SAM, 1 mM DHC), the “inhibition of AF production” value is listed as “almost completely inhibited”. Moreover, the “rate of AF formation in the presence of inhibitor” value in series [1] (competition assay, 2 mM DHC + 2 mM analogue, 3.5 min^−1 without analogues) was 0.2 min⁻¹. In series [1] (fit to non-linear competitive inhibition equation, 0.5 μM PhMqnE, 1 mM SAM, 1 mM DHC), the Ki (in general, the dissociation constant of the complex between target and ligand, obtained from inhibition or displacement) is ~2 µM. Besides, in series [2] (Helicobacter pylori, 72 hr, read-out: minimal inhibitory concentration that restricts >90% of the growth (IC90)), the IC90 is < 23 µg/mL. For the same molecule, the IC50 (commonly the concentration at which inhibition is half-maximal) in series [2] (Helicobacter pylori, BHI medium, 10% FBS, OD600 after 72 hr at 37° C.) came out at 31.8 ± 2.5 µM. For the same molecule, the inhibition – broadly, the share of the control response that was lost under treatment – at 30 µM in series [2] (Helicobacter pylori, at ˜30 μM (6 pg/mL), 72 hr) is ~50%. Besides, the “growth of Hp” value in series [2] (at 1 mM, 48 hr) is reported as “completely inhibits growth; also recorded: fully inhibited”; in series [2] (at, 72 hr) it was “completely inhibited”. In series [3] (2 mM SAM and 2 mM 2F-DHC), the “fold slower product formation than with DHC as substrate” value is listed as ~10 fold. In series [3] (2 mM SAM and 2 mM analogue as sole substrate), the “rate of conversion to fluorinated AF product” value stood at 0.41 min⁻¹. Further, the “effect on HEK293T cell growth and viability” value in series [4] was “No difference in growth is observed”. The “effect on growth of E. coli” value in series [5] is given as “no effect; also recorded: No difference in growth is observed”.
As for `Nc1ncnc2c1ncn2[C@@H]1O[C@H](CCC(=O)c2cccc(C(=O)O)c2)[C@@H](O)[C@H]1O` [AF, aminofutalosine, reference compound], in series [2] (setting [7]), the “OD600 of Hp culture in the presence of 1 mM 2F-DHC” value is recorded as ~0.28 and the “rescue of Hp growth in the presence of 1 mM 2F-DHC” value is listed as “fully restored; also recorded: can restore growth”.
As to `C[S+](CC[C@H](N)C(=O)[O-])C[C@H]1O[C@@H](n2cnc3c(N)ncnc32)[C@H](O)[C@@H]1O` (stereo partly drawn) [SAM, S-adenosyl-L-methionine, reference compound], the Km (usually the concentration of substrate that gives half-maximal velocity) in series [3] (purified PhMqnE, dithionite (DT) as electron source) stood at 21 µM.

B1: PhMqnE (MqnE from Pedobacter heparinus) (Pedobacter heparinus DSM 2366) (protein)
chain: MDTTSKLALILADADLPAALKAIALKVQNQERITFDEGVYLYENAELGYLGVLANYIREQKHGDNTYFNRNFHIEPTNVCVYDCKFCSYSRLIKQKEEGWEMSVDGMMEVLKKYDHEPVTEVHITGGVVPKQNLEFYSDFFRRAKAHRPELHIKALTPVEYYYIFKKAKLSHYDGMKYMQEAGLDSMPGGGAEIFHPEVREKIAHDKCNAEQWLDIHEQAHKLGMKTNATMLYGHIEQFWHRVDHMERLRRQQDKTGGFQAFIPLKFRNQHNQMDHVPEVSVIEDLRNYAIARIYMDNFDHIKAYWAMISRQTAQLSLNFGVDDIDGTLDDTTKIYSMAGAEEQHPAMSTRDLVDLIKQVKRKPIERDTLYNVVTDYSQVTFEDEVKPQYYKLPVIN
For the molecule B1, in series [6], the Michaelis constant (Km) came to 72 µM.
